Read-outs that look alike come from different tables or passages of the source.

Assay [1] concerns B. pertussis. Format: cell-based, Bordetella pertussis. Particulars: for Growth: 53 h; for Biomass yield after 53 h: sole sulfur source, 35° C.; for Support of growth as the sole source of sulfur: medium containing no other S source.
Assay [2] relates to B. pertussis. Format: cell-based, Bordetella pertussis.
Assay [3] relates to B. pertussis. Description: Growth in minimal media containing only one amino acid, shake-flasks. The format is cell-based, Bordetella pertussis. The following applies: L-cysteine 125 mM as single amino acid, no thiosulfate added. How it is done: Assays were performed in order to determine whether growth of B. pertussis is possible in minimal media containing a single amino acid as the sole source of carbon and nitrogen. A shake-flask containing 7.5 ml fresh medium (B-CDM containing 0.604 g/L niacin) was inoculated with 10^9 B. pertussis CFUs and incubated at 35° C. (+/−1° C.) and 150 rpm for 24 h (+/−5 h). Cells were harvested by centrifugation, washed twice with NaCl 0.9% (w/v), and resuspended in fresh medium (see composition in Table 12) at a theoretical OD650 nm of 0.5, as calculated from the OD650 nm of the culture before harvest. 1 ml of this cell suspension was used to inoculate shake-flasks containing 30 ml of the medium in Table 12, supplemented with a single amino acid (L-cysteine 125 mM, L-proline 125 mM, L-glutamate 125 mM, L-glutamine 125 mM, L-aspartate 30 mM, L-asparagine 125 mM, L-serine 125 mM, or L-alanine 125 mM) as a source of C and N, and thiosulfate 0.25 mM as a source of S (except for L-Cys supplementation, where no thiosulfate was added). The same medium with ammonium chloride (25 mM) and thiosulfate (0.25 mM), but no amino acid, was used as a negative control. The shake flasks were then incubated for approximately 10 days at 35° C. under constant shaking (150 rpm). Growth was monitored as OD650 nm.

The subject of another assay is Bordetella pertussis. The format is cell-based.
Where [4] appears, read: buffer 2.5 g/L, relative to Tris control.
Where [5] appears, read: buffer 5.0 g/L, relative to Tris control.
Setting [6] is: buffer 10.0 g/L, relative to Tris control.
The mark [7] stands for this setting: buffer 20.0 g/L, relative to Tris control.
Where [8] appears, read: buffer 6.1 g/L, control conditions.

Turning to `O=S([O-])[O-].[Na+].[Na+]` [disodium sulfite], in the assay with B. pertussis [1] (1 mM in medium), the Growth entry was “−” and the “Biomass yield after 53 h” value came out at 0.011 OD650nm. In addition, the “Biomass yield after 53 h” value in the assay on B. pertussis [1] (12 mM in medium) came to 0.007 OD650nm. Moreover, the “Support of growth as the sole source of sulfur” value (“Support of growth … of sulfur” for short) in the assay with B. pertussis [1] is “not able to support growth”.
Regarding `O=P(O)(O)OC(CO)CO` [β-glycerophosphate], the “Support of growth as buffer in B-CDM” value with B. pertussis [2] is listed as “able to support growth”. Besides, the “Relative biomass yield after 24 h” value with B. pertussis [2] (setting [4]) turned out to be 88%; in the assay with B. pertussis [2] (setting [5]), 89%; in the assay with B. pertussis [2] (setting [6]), 68%; in the assay with B. pertussis [2] (setting [7]) it was 46%. Further, the “Relative biomass yield after 48 h” value in the assay on B. pertussis [2] (setting [4]) is 79%; in the assay with B. pertussis [2] (setting [5]), 67%; in the assay with B. pertussis [2] (setting [6]) it was 59%; in the assay on B. pertussis [2] (setting [7]), 45%.
Take `O=S(=O)(O)CCCN1CCOCC1` [MOPS, 3-(N-morpholino)propanesulfonic acid]: in the assay with B. pertussis [2], the “Support of growth as buffer in B-CDM” value was “able to support growth”. Further, the “Relative biomass yield after 24 h” value with B. pertussis [2] (setting [4]) was determined as 114%; in the assay on B. pertussis [2] (setting [5]), 85%; with B. pertussis [2] (setting [6]), 111%; with B. pertussis [2] (setting [7]) it was 81%. Moreover, the “Relative biomass yield after 48 h” value with B. pertussis [2] (setting [4]) is listed as 91%; with B. pertussis [2] (setting [5]), 88%; in the assay on B. pertussis [2] (setting [6]), 84%; in the assay with B. pertussis [2] (setting [7]), 76%.
`O=S(=O)([O-])[O-].[Na+].[Na+]` [disodium sulfate]: in the assay with B. pertussis [1] (12 mM in medium), the Growth result is given as “−” and the “Biomass yield after 53 h” value is given as 0.015 OD650nm. The “Support of growth … of sulfur” value in the assay on B. pertussis [1] was “not able to support growth”.
Take `N[C@@H](CS)C(=O)O` [L-cysteine]: in the assay with B. pertussis [1] (27 mM in medium), the Growth result was “+” and the “Biomass yield after 53 h” value was determined as 0.512 OD650nm. Further, the “Need for an additional source of sulfur” value in the assay on B. pertussis [3] is reported as “no additional source of sulfur was required”.
As to `[Cl][Cu][Cl]` [CuCl2], the Biomass yield result in the assay on Bordetella pertussis is given as “significant increase”.
Consider `O=S(O)(O)=S` [disodium thiosulfate], for which, in the assay with B. pertussis [1] (1 mM in medium), the Growth result is on record as “+” and the “Biomass yield after 53 h” value was found to be 0.227 OD650nm. In addition, in the assay on B. pertussis [1] (12 mM in medium), the Growth entry is listed as “+” and the “Biomass yield after 53 h” value is recorded as 0.472 OD650nm. Moreover, the “Support of growth … of sulfur” value in the assay on B. pertussis [1] is recorded as “growth was observed”.
For tris(hydroxymethyl)aminomethane, in the assay on B. pertussis [2] (setting [8]), the “Relative biomass yield after 24 h” value is 100% and the “Relative biomass yield after 48 h” value was determined as 100%.
